Test results from ChEMBL document CHEMBL1140007, “Structure-activity studies of phenanthroindolizidine alkaloids as potential antitumor agents” (Bioorg Med Chem Lett, 2007).
Active and inactive are the calls of the source. The calls are words filed in the database; no cut-off is given here.

Experiments:
HepG2 [1] = assay: Cytotoxicity against HepG2 cells; format: functional; conditions: Homo sapiens
PANC-1 = assay: Cytotoxicity against PANC1 cells; format: functional; conditions: Homo sapiens
HepG2 [2] = assay: Antitumor activity against HepG2 cells xenografted nude mouse at 9 mg/kg, ip twice per day on every third day for four cycles; format: functional, organism-based; set-up: dose 9 mg/kg; conditions: Homo sapiens
[3] = Inhibition of NF-kappaB-mediated gene transcription in HepG2 cells by luciferase reporter gene assay; format: cell-based; conditions: Homo sapiens
[4] = Inhibition of CRE-mediated gene transcription in HepG2 cells by luciferase reporter gene assay; format: cell-based; conditions: Homo sapiens
HepG2 [5] = assay: Down regulation of cyclin D1 expression in HepG2 cells; format: functional, cell-based; conditions: Homo sapiens
Mus musculus [6] = assay: Reduction of body weight in HepG2 xenografted nude mouse at 9 mg/kg, ip after 10 days; format: ADME, organism-based; set-up: dose 9 mg/kg, route intraperitoneal; scale not given: the % may be the effect or the level left; conditions: in vivo, 240 h
Mus musculus [7] = assay: Reduction of body weight in HepG2 xenografted nude mouse at 9 mg/kg, ip after 9 days; format: ADME, organism-based; set-up: dose 9 mg/kg, route intraperitoneal; scale not given: the % may be the effect or the level left; conditions: in vivo, 216 h

| SMILES | GI50 (HepG2 [1]) | GI50 (PANC-1) | Activity (HepG2 [2]) | IC50 [3] | IC50 [4] | Activity (HepG2 [5]) | Activity (Mus musculus [6]) | Activity (Mus musculus [7]) |
| --- | --- | --- | --- | --- | --- | --- | --- | --- |
| COc1ccc2c3c(c4cc(OC)c(O)cc4c2c1)CN1CCC[C@@H]1C3 | 0.013 µM | 0.011 µM | inactive | 0.011 µM | 0.135 µM | Dose-dependent effect | – | – |
| COc1cc2c(cc1OC)-c1cc(OC)c(OC)cc1C1CN3CCC[C@H]3C=C21 (some centres not stated) | – | – | – | > 0.3 µM | > 0.3 µM | – | – | – |
| COc1cc2c3c(c4cc(OC)c(OC)cc4c2cc1OC)[C@H](O)[C@@H]1CCCN1C3 | – | – | – | – | 1.07 µM | – | 15% | 15% |
| COc1cc2c3c(c4cc(OC)c(OC)cc4c2cc1OC)[C@@H](O)[C@@H]1CCCN1C3 | – | – | – | 0.315 µM | > 0.3 µM | – | – | – |
| COc1cc2c3c(c4cc(OC)c(OC)cc4c2cc1O)CN1CCC[C@H]1[C@H]3O | > 0.6 µM | – | – | 0.322 µM | > 0.3 µM | – | – | – |
| COc1ccc2c3c(c4cc(OC)c(O)cc4c2c1)C[N+]1([O-])CCC[C@H]1[C@H]3O (some centres not stated) [TYLOPHORIDICINE C] | 0.098 µM | 0.067 µM | – | 0.6 µM | > 1 µM | Dose-dependent effect | – | – |
| COc1cc2c3c(c4ccc(O)cc4c2cc1OC)[C@H](O)[C@@H]1CCCN1C3 [TYLOPHORIDICINE E] | > 5 µM | > 5 µM | – | > 1 µM | > 1 µM | Dose-dependent effect | – | – |
| COc1ccc2c3c(c4cc(OC)c(OC)cc4c2c1)C[N+]1([O-])CCC[C@H]1[C@@H]3O (some centres not stated) [TYLOPHORIDICINE F] | 0.071 µM | 0.063 µM | – | 0.367 µM | > 1 µM | Dose-dependent effect | – | – |
| COc1ccc2c3c(c4cc(OC)c(O)cc4c2c1)CN1CCC[C@H]1[C@H]3O [TYLOPHORINIDINE] | 0.011 µM | 0.007 µM | Active | 0.01 µM | 0.095 µM | Dose-dependent effect | – | – |
| COc1ccc2c3c(c4cc(OC)c(OC)cc4c2c1)CN1CCC[C@H]1[C@@H]3O [TYLOPHORININE] | 0.02 µM | 0.011 µM | – | 0.012 µM | 0.08 µM | Dose-dependent effect | – | – |
